Two molecules from ChEMBL document CHEMBL1201862, “PubChem BioAssay data set” (2004) can be followed below.

The target in test [1] is Serine/threonine-protein kinase pim-1 (Homo sapiens, UniProt P11309). Format: functional.
Test [2] concerns the target MAP kinase-activated protein kinase 5 (Homo sapiens, UniProt Q8IW41). Format: functional.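 Also: measured as one member of a kinome panel.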
For test [3], the target named is Serine/threonine-protein kinase PAK 1 (Homo sapiens, UniProt Q13153). Format: functional.
Test [4] has as its target Fibroblast growth factor receptor 1 (Homo sapiens, UniProt P11362). The format is functional.
Test [5] concerns the target Mitogen-activated protein kinase 9 (Homo sapiens, UniProt P45984). The format is functional.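 Also: value from a kinome panel profiling assay, MAPK9 panel entry.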
Test [6] concerns the target Serine/threonine-protein kinase N2 (Homo sapiens, UniProt Q16513). The format is functional.
Test [7] addresses Tyrosine-protein kinase ABL1 (Homo sapiens, UniProt P00519). The format is functional.
Test [8] concerns the target MAP kinase-interacting serine/threonine-protein kinase 2 (Homo sapiens, UniProt Q9HBH9). The format is functional.
In test [9] the target is Insulin-like growth factor 1 receptor (Homo sapiens, UniProt P08069). Briefly: Navigating the Kinome. Panel member name: IGF1R. Format: functional.
Test [10] addresses 3-phosphoinositide-dependent protein kinase 1 (Homo sapiens, UniProt O15530). Format: functional.
For test [11], the target named is Receptor tyrosine-protein kinase erbB-4 (Homo sapiens, UniProt Q15303). The format is functional.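 Also: ERBB4 member of a kinome-wide kinase profiling panel.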
Test [12] addresses Mitogen-activated protein kinase 12 (Homo sapiens, UniProt P53778). Format: functional.
The target of test [13] is T1, Tyrosine-protein phosphatase non-receptor type 22 (Homo sapiens, UniProt Q9Y2R2).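 Also: confirmatory dose-response retest of primary uHTS hits for inhibition of LYP phosphatase, measured by a fluorescence intensity read-out.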
T1 sequence (Q9Y2R2 whole entry): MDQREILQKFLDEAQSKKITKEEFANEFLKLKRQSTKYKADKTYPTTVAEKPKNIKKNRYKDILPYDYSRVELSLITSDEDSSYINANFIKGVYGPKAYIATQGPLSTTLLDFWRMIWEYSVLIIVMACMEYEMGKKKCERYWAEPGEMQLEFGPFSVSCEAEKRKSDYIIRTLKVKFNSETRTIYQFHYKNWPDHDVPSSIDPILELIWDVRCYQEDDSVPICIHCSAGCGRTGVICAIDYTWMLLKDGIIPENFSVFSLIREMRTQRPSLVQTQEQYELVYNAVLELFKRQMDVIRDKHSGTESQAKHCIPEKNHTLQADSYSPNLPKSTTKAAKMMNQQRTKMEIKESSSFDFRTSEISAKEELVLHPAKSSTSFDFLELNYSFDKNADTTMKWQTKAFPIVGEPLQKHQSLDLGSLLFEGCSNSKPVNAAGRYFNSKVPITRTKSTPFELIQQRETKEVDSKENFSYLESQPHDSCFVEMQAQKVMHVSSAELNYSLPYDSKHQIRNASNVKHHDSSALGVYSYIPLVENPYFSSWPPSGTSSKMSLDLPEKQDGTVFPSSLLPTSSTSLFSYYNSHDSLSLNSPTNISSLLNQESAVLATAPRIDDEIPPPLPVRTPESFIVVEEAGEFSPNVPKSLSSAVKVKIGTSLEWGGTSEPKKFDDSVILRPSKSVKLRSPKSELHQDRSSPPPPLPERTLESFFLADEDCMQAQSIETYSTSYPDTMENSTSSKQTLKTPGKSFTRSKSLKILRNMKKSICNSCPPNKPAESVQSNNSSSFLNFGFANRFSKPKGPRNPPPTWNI
Format: functional.

A further test has as its target Phospholipase A2 (Homo sapiens, UniProt P04054). Format: functional.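 Also: confirmatory dose-response counterscreen on phospholipase A2, testing hits that came from an ultra-high-throughput screen for ATG4B inhibitors.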
The next test has as its target Mu-type opioid receptor (Homo sapiens, UniProt P35372). In words: Counterscreen for agonists of heterodimerization of the mu 1 (OPRM1) and delta 1 (OPRD1) opioid receptors: Luminescence-based cell-based high throughput dose response assay to identify agonists of OPRM1 homodimerization. Format: functional.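 Also: U2OS cells expressing OPRM1 and beta-arrestin as split beta-galactosidase partners.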
The target in a further test is T2, Caspase-6 (Homo sapiens, UniProt P55212).
T2 sequence (P55212 whole entry): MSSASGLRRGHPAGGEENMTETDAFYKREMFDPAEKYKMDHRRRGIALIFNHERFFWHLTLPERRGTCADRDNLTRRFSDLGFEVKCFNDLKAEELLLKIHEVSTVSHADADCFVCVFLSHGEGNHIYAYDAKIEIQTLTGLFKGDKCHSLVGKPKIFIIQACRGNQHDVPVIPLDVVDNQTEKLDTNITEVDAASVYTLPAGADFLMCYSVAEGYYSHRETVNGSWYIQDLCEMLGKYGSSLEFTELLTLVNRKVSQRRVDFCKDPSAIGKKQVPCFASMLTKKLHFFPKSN
Briefly: human caspase-6 inhibitors, dose response, biochemical, VEID-R110 fluorescence, cherry-pick (AID 720632).

The nature of test [14]: inhibitors of PGC1a acetylation in cells, dose response, cell-based, cherry-picked samples (AID 720514).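 Also: potency may reflect raised or lowered acetylation signal.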 The format is functional.
Test [15] can be described thus: HEK293 cell cytotoxicity, dose response, cytotoxicity control, plate reader, cherry-picked samples (AID 743446). The format is functional, cell-based.

Activity calls are given as the source filed them.

Mitogen-activated protein kinase 9, sequence (P45984 whole entry): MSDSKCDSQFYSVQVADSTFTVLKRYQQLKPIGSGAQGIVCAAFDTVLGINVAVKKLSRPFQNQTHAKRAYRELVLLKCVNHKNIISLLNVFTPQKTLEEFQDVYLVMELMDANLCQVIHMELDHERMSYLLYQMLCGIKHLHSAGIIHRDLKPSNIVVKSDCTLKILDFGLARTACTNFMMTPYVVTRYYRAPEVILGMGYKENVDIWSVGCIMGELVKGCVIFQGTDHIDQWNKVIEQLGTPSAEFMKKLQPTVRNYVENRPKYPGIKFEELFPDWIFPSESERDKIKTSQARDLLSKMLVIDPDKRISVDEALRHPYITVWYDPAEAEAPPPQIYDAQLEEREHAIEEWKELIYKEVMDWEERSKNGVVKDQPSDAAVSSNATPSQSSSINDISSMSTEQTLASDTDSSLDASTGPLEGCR
Receptor tyrosine-protein kinase erbB-4, sequence (Q15303 whole entry): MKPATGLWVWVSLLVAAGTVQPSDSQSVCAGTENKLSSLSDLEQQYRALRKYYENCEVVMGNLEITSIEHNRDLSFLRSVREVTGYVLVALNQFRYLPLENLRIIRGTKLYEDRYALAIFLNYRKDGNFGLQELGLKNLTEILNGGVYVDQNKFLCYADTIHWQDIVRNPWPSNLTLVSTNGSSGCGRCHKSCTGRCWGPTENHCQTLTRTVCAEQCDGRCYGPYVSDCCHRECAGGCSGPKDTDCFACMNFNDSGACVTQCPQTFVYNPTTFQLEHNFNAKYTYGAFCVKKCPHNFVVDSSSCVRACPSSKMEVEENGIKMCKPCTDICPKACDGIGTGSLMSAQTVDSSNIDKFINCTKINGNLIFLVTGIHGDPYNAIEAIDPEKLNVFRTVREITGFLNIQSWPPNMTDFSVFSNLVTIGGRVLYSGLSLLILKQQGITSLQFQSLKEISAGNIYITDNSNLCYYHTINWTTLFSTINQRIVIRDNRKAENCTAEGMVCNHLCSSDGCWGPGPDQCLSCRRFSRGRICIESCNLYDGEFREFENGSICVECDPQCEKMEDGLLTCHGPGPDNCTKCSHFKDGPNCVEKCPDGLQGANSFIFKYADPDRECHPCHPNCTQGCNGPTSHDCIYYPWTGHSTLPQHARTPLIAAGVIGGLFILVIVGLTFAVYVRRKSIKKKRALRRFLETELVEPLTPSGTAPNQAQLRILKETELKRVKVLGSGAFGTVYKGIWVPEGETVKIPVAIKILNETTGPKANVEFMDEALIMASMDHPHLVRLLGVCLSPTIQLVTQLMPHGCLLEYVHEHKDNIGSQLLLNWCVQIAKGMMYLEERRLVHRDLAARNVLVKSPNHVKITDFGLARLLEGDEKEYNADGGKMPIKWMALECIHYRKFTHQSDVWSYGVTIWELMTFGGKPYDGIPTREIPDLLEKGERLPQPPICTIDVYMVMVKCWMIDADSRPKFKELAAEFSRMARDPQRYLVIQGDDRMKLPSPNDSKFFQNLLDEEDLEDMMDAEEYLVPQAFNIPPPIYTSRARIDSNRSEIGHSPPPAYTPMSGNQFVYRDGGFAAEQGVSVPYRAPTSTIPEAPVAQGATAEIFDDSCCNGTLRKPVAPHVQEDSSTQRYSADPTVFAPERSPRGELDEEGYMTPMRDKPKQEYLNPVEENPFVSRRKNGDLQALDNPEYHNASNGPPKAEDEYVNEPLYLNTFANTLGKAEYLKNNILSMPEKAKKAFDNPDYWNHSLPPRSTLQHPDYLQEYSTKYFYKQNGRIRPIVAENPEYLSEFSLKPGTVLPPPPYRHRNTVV
Phospholipase A2, sequence (P04054 whole entry): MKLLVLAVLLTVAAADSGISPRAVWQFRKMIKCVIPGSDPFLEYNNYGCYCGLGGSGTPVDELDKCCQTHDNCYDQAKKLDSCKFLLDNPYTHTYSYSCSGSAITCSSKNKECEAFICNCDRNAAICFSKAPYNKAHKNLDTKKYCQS
Tyrosine-protein kinase ABL1, sequence (P00519 whole entry): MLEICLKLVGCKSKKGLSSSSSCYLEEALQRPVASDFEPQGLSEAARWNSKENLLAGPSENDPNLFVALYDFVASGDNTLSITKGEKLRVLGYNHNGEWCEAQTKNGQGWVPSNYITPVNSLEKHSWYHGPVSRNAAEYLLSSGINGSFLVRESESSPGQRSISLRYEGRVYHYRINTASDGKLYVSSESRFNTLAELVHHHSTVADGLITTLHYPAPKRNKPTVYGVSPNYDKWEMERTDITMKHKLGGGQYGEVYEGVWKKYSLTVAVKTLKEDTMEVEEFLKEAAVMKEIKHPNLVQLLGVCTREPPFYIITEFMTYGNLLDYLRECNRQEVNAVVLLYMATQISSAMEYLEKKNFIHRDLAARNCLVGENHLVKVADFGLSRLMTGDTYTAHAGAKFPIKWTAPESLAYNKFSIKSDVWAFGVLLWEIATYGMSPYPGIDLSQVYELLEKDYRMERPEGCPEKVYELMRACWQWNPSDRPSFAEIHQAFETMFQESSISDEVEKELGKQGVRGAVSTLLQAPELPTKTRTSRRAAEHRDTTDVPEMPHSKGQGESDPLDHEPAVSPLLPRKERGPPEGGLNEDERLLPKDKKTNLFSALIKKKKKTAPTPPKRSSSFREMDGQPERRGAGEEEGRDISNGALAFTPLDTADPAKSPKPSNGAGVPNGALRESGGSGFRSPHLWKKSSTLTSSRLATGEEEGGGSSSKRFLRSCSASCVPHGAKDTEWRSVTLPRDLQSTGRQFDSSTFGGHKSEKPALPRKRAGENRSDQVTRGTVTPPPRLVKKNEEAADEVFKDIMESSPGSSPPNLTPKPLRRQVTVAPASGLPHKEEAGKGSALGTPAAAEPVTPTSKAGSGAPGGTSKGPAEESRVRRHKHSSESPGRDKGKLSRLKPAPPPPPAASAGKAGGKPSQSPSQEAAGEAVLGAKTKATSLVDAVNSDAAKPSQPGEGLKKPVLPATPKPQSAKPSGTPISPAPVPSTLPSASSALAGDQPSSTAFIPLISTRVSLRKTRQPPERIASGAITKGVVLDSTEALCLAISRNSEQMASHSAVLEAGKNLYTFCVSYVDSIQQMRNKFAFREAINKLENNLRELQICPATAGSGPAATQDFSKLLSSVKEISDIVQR
MAP kinase-activated protein kinase 5, sequence (Q8IW41 whole entry): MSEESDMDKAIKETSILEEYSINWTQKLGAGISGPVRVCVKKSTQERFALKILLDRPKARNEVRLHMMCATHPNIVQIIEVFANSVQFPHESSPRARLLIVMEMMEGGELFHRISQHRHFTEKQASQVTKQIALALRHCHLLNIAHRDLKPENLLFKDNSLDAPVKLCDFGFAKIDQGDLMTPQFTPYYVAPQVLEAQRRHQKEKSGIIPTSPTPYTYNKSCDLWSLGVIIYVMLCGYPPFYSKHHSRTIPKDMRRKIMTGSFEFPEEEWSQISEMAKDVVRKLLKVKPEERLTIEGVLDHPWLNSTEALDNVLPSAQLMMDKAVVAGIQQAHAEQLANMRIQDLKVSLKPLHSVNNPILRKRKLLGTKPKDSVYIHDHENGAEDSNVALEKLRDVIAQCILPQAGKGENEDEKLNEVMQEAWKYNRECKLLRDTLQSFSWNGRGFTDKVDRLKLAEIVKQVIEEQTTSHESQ
MAP kinase-interacting serine/threonine-protein kinase 2, sequence (Q9HBH9 whole entry): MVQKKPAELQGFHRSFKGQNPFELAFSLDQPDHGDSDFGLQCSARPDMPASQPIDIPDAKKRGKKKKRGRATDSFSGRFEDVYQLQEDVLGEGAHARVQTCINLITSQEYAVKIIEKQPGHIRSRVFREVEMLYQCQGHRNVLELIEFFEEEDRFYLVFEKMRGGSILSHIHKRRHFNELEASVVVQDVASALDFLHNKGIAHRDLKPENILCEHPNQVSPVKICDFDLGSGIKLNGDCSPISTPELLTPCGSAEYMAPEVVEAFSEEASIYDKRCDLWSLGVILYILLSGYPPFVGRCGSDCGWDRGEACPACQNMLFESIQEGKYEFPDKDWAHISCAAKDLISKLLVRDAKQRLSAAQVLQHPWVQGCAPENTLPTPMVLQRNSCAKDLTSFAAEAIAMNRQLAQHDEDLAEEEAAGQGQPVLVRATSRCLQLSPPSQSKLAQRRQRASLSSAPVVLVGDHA
Serine/threonine-protein kinase pim-1, sequence (P11309 whole entry): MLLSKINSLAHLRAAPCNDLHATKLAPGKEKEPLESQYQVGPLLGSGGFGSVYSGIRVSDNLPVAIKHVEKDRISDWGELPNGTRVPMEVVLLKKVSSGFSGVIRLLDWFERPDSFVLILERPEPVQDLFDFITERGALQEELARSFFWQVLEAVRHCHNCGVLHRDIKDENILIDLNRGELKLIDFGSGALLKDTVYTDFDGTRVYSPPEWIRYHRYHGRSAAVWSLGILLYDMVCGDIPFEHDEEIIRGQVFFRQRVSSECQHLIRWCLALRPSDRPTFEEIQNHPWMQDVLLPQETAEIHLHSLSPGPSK
Serine/threonine-protein kinase PAK 1, sequence (Q13153 whole entry): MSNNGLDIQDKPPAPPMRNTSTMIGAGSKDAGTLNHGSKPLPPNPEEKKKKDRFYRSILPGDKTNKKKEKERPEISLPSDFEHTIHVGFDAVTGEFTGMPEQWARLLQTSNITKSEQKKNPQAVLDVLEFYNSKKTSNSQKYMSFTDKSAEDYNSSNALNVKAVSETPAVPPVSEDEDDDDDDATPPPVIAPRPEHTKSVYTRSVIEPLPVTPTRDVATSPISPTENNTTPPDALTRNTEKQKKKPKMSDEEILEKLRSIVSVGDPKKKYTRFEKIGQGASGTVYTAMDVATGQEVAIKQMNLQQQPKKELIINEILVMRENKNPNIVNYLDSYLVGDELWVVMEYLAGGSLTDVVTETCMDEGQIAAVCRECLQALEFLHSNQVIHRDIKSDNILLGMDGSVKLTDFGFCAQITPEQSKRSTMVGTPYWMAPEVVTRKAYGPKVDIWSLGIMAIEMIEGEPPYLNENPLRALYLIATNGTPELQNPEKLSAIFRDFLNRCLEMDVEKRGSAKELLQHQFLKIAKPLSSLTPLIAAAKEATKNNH

In the case of `COc1cc2ncn(-c3cc(OCc4ccccc4C(F)(F)F)c(C(N)=O)s3)c2cc1OC` [GW843682X], the Ki in [1] was > 10 µM (inactive); in test [2], 0.0631 µM (active); in test [3] it was > 10 µM (inactive); in [4], 3.98 µM (active); in [5], > 3.98 µM (inactive); in test [6] it was > 7.94 µM (inactive). In addition, the Ki is > 0.631 µM (inactive) in [7]; > 10 µM (inactive) in test [8]; > 1 µM (inactive) in test [9]; > 3.98 µM (inactive) in [10]; > 3.98 µM (inactive) in test [11]; > 6.31 µM (inactive) in test [12].

In the case of `CCCc1nc2c(=O)n(C)c(=O)nc-2n(C)n1`, the IC50 is 1.6 µM (active) in [13] and > 80 µM (inactive) on Phospholipase A2. For the same molecule, at Mu-type opioid receptor, the EC50 was > 92.5 µM (inactive). Moreover, the AC50 at Caspase-6 is 0.0636 µM (active); in [14], 2.95 µM (active); in [15] it was 27.1 µM (active).

A word on the Ki: it is a measure of affinity in units of concentration, obtained from inhibition or displacement. A word on the IC50: it is the concentration needed to halve the response being measured. By EC50 is commonly meant the concentration that produces a half-maximal response. As a reminder, the AC50 is the midpoint of the concentration-response curve, whichever way the signal moves.
